Results on seven compounds are retold here after patent publication US6610714B2, “Non-nucleoside reverse transcriptase inhibitors” (Medivir AB, priority 2001, dated 2003).

This assay relates to HIV-1IIIB (wild type). The assay is described as follows: XTT assay in MT-4 cells infected with wild type HIV-1IIIB. The settings on record: Human immunodeficiency virus 1, MT4, read-out: ED50. Format: cell-based. The protocol: Compounds of the invention are assayed for HIV activity, for example using multiple determinations with XTT in MT-4 cells (Weislow et al, J Nat Cancer Inst 1989, vol 81 no 8, 577 et seq), preferably including determinations in the presence of 40-50% human serum to indicate the contribution of protein binding. In short the XTT assay uses human T cell line MT4 cells grown in RPMI 1640 medium supplemented with 10% fetal calf serum (or 40-50% human serum as appropriate), penicillin and streptomycin seeded into 96 well microplates (2·10^4 cells/well) infected with 10-20 TCID50 per well of HIV-1IIIB (wild type) or mutant virus, such as those bearing RT IIe 100, Cys 181 or Asn 103 mutations. Serially diluted test compounds are added to respective wells and the culture incubated at 37° C. in a CO2 enriched atmosphere and the viability of cells is determined at day five or six with XTT vital dye. Results are typically presented as ED50 μM.
Background: Tetrazolium assays rely on reduction of a dye to a coloured formazan, in cell work by metabolically active cells.

Each structure is given as a SMILES string. pEC50: −log10 of the molar value.

`N#Cc1ccc(NC(=O)N[C@@H]2[C@@H]3Cc4cc(Br)ccc4[C@@H]32)nc1` (racemic) [Example 17, (±)-cis-1-(5-cyano-2-pyridinyl)-3-(4-bromo-1,1a,6,6a-tetrahydro-cyclopropa[a]inden-1-yl)-urea]: the pEC50 is 7.38.
In the case of `O=C(Nc1ccc(Cl)cn1)N[C@@H]1[C@@H]2Cc3c(F)ccc(F)c3[C@@H]21` (racemic) [Example 19, (±)-cis-1-(5-chloro-2-pyridinyl)-3-(2,5-difluoro-1,1a,6,6a-tetrahydro-cyclopropa[a]inden-1-yl)-urea] it was 8.00.
In the case of `N#Cc1ccc(NC(=O)N[C@@H]2[C@@H]3Cc4c(F)ccc(F)c4[C@@H]32)nc1` (racemic) [Example 20, (±)-cis-1-(5-cyano-2-pyridinyl)-3-(2,5-difluoro-1,1a,6,6a-tetrahydro-cyclopropa[a]inden-1-yl)-urea] it was 7.85; in that of `COc1ccc2c(c1)CC[C@H]1[C@@H](NC(=O)Nc3ccc(C#N)cn3)[C@@H]21` [Example 5, +/−cis-N-(5-cyano-2-pyridinyl)-N-(5-methoxy-1a,2,3,7b-tetrahydro-1H-cyclopropa[a]naphthalen-1-yl)urea], 8.05.
In the case of `COc1ccc2c(c1)[C@H]1[C@@H](CC2)[C@H]1NC(=O)Nc1ccc(C#N)cn1` [Example 6, +/−cis-N-(5-cyano-2-pyridinyl)-N-(6-methoxy-1a,2,3,7b-tetrahydro-1H cyclopropa[a]naphthalen-1-yl)urea] it was 7.44.
Turning to `C#Cc1ccc2c(c1)CC[C@H]1[C@@H](NC(=O)Nc3ccc(C#N)cn3)[C@@H]21` [Example 8, +/−cis-N-(5-cyano-2-pyridinyl)-N-(5-ethynyl-1a,2,3,7b-tetrahydro-1H-cyclopropa[a]naphthalen-1-yl)urea], the pEC50 is 7.49.
Next, `C#Cc1ccc2c(c1)CC[C@H]1[C@@H](NC(=O)Nc3ccc(Br)cn3)[C@@H]21` [Example 9, +/−cis-N-(5-bromo-2-pyridinyl)-N-(5-ethynyl-1a,2,3,7b-tetrahydro-1H-cyclopropa[a]naphthalen-1-yl)urea]: 7.36.
